Measurements as given in US7323471B1, “Topical azathioprine for the treatment of oral autoimmune diseases” (DOR Biopharma, Inc., priority 1999, dated 2008).

Assays:
[1] = test system: oral findings due to GVHD
Procedure: Five other patients suffering from oral findings due to GVHD were treated with oral azathioprine solutions, using the method of the present invention. The patients were treated with 5 ml of a solution of AZA (5 mg/ml), three-four times daily. […] One patient (#5) was treated once with an oral rinse, and subsequently with a combination of an AZA rinse and AZA in a gel (5 mg/ml in a 3% methylcellulose base). The patients were not treated with any systemic immunosuppressant or steroid drug. The progress of each patient was reviewed at the times indicated.

[2] = 50 mg/ml solution, 60 days at 25° C.; cited from earlier work
parodontosis = conditions: topical administration; cited from earlier work
corneal graft rejections = conditions: topical administration; cited from earlier work
aphthous stomatitis = conditions: topical administration; cited from earlier work
[3] = delayed-release oral capsule, improved ileocolonic delivery; cited from earlier work
chronic oral GVHD = assay: Case report: severe chronic oral GVHD refractory to systemic and topical therapies; conditions: when systemic prednisone was increased; tongue ulceration not resolved
Procedure: They had continuing difficulties with GVHD, including oral involvement.
Oral findings were consistent with pseudomembranous candidiasis, and an ulceration on the left cheek was consistent with minor trauma. […] Acute (grade II) GVHD (skin and liver) was treated with systemic corticosteroids.
Leukoplakia involving the lateral borders of the tongue, consistent with hairy-like leukoplakia, developed. […] Oral changes included findings consistent with GVHD and reactivation of HSV. HSV and candida were confirmed on culture. […] Multiple dilated salivary ducts were visualized on the soft palate. Ulcerations of 3-4 mm in diameter were present on the lateral borders, the dorsum, and the tip of the tongue. […] Biopsy of the ulcer on the cheek was consistent with HSV.
Extensive lichenoid striae with moderate erythema and ulceration involving the lateral tongue on the right and left and the right cheek was seen. A second oral biopsy of lip mucosa and minor salivary glands was completed, which was interpreted as grade II GVHD.
The AZA suspension was made by combining AZA powder with a cherry flavored methylcellulose (1%) suspending vehicle to a final concentration of 5 mg/ml. […]

Row | Structure (SMILES) | reduction in ulceration ([1]; all but one of the GVHD patients of Table 1) | reduction in pain, all the patients ([1]; all five GVHD patients of Table 1) | estimated global improvement, all the patients ([1]; all five GVHD patients of Table 1, compared to condition prior to treatment) [%] | retained share of the initial concentration [2] | effect in the treatment of parodontosis (parodontosis) | effect in the treatment of corneal graft rejections (corneal graft rejections) | effect in the treatment of aphthous stomatitis (aphthous stomatitis) | systemic bioavailability [3] | oral symptoms and signs (chronic oral GVHD)
1 | Cn1cnc([N+](=O)[O-])c1Sc1ncnc2nc[nH]c12 [AZA, azathioprine] | at least 50% | at least 50% | ≥ 40 | at least 96% | some beneficial effect | ineffective | ineffective | dramatically reduced systemic bioavailability | –
2 | C[C@]12C=CC(=O)C=C1CC[C@@H]1[C@@H]2C(=O)C[C@@]2(C)[C@H]1CC[C@]2(O)C(=O)CO [prednisone] | – | – | – | – | – | – | – | – | improved
